The target of the test is T1, wildtype human PAI-1 (Homo sapiens, UniProt P05121).
T1 construct: purchased Molecular Innovations Lot# HWT-804
Briefly: PAI-1/uPA assay (residual uPA activity, fluorescent substrate SpectroFluor). The note with it: for Percent PAI-1 inhibition: at the concentration given, percent of activity of untreated PAI-1; for Conc. of compound required for PAI-1 inhibition: concentration giving the percent inhibition, 6 nM PAI-1, 8 nM uPA; for Conc. of compound required for PAI-1 inhibition (result in words): within the concentration range tested. Type of test: biochemical. The protocol:
Principle: The assay is based on using a fluorescent substrate (SpectroFluor) to measure residual uPA following inhibition of uPA by PAI-1. PAI-1 used in the assay is pre-treated in the presence of increasing concentrations of the lead compounds to screen for any inhibitory effects on PAI-1. Method: This assay was performed in 96 well microtiter plates. The concentrations of uPA (8 nM) and PAI-1 (6 nM) used in this assay were carefully optimized when using the fluorescent substrate, SpectroFluor™. Stock solutions (10 mM) of all lead compounds were prepared fresh in DMSO. […] 20 μl of 6 nM wildtype human PAI-1 (Molecular Innovations, Lot# HWT-804) was incubated for 15-20 minutes at room temperature in 96 well microtiter plates either with buffer, (50 mM HEPES, 150 mM NaCl, 0.05% Tween-20, 1% BSA, pH 6.6) or various concentrations (10 nM to 100 μM final concentration) of lead compounds in a total volume of 80 μl. A 20 μl aliquot of 8 nM uPA (HMW) solution in 0.05M Tris Buffered™ saline (TBS), pH 8.4 was added to each well and the mixture incubated for an additional 5 minutes at RT. The proteolytic reaction was initiated by addition of 50 μl of 0.1 mM SpectroFluor (Spectrozyme UK Fluorogenic substrate) to each well. The kinetics of the free chromophore, 7-amino-4-methylcoumarin (AMC) released in the course of peptide cleavage by the protease, uPA, was monitored for 30 minutes at 37° C. on a spectrofluorometric microplate reader with an excitation wavelength of 360 nm and emission wavelength of 440 nm. Kinetic data regarding the rate of substrate cleavage by uPA was acquired with Softmax PrO™ software. The difference between the residual uPA activity in the presence or absence of untreated PAI-1, at the molar ratio used, was considered as the “total” PAI-1 activity (100%). The inhibition of uPA by PAI-1 treated with lead compounds was expressed as a percentage of the initial activity of untreated PAI-1. Controls were performed during each experiment to ensure the nearly complete inhibition of uPA by untreated PAI-1 and also to ensure the absence of any direct effect of the lead compounds on uPA alone or on SpectroFluor.

T1 sequence (P05121 24-402): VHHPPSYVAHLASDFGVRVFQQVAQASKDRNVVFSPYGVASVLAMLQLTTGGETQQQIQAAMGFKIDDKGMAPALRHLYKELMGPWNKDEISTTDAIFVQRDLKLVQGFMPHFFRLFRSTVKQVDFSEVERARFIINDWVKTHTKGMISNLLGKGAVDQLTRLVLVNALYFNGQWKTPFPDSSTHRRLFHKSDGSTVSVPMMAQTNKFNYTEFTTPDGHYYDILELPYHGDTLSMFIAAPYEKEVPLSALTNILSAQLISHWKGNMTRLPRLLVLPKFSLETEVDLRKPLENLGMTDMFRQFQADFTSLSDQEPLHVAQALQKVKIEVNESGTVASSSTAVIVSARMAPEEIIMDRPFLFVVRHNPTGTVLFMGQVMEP

Regarding `CCOC(=O)[C@H](Cc1ccccc1)NC(=O)Nc1ccc2c(C)cc(=O)oc2c1` [Compound Q012053, (2S)-2-({[(4-Methyl-2-oxo-2H-chromen-7-yl)amino]carbonyl}amino)-3-phenylpropanoic acid ethyl ester], the “Percent PAI-1 inhibition” value is reported as 44 and the “Conc. of compound required for PAI-1 inhibition” value was found to be 10 µM.

On to `O=C(O)c1cc(/C=C2\NC(=O)N(Cc3ccccc3)C2=O)ccc1O` [Compound Q013012, 5-[(Z)-(1-benzyl-2,5-dioxoimidazolidin-4-ylidene)methyl]-2-hydroxybenzoic acid], for which the “Conc. of compound required for PAI-1 inhibition (result in words)” value is “No inhibition”.

On to `Cl.O=C(N[C@@H](Cc1csc2ccccc12)C(=O)O)c1cncc(Br)c1` [Compound Q011265, (S)—N-(5-bromonicotinoyl)-3-(thianaphthen-3-yl)alanine hydrochloride], for which the “Percent PAI-1 inhibition” value came to 20 and the “Conc. of compound required for PAI-1 inhibition” value was 1 µM. On to `COc1cc(CNCc2ccc(C(=O)O)cc2)cc(CN2CCN(c3ccccn3)CC2)c1O` [Compound Q012136], for which the “Percent PAI-1 inhibition” value came to 15 and the “Conc. of compound required for PAI-1 inhibition” value was 50 µM. `N=C(N)N1CCC[C@@H](C(=O)N[C@@H](Cc2csc3ccccc23)C(=O)O)C1` [Compound Q012130, (2S)-3-(thianaphthen-3-yl)-2-({[(3R)—N-[amino(imino)methyl]piperidin-3-yl]carbonyl}amino)propionic acid]: the “Conc. of compound required for PAI-1 inhibition (result in words)” value is “No inhibition”. Take `CCOC(=O)[C@H](Cc1csc2ccccc12)NC(=O)COc1ccc2c(C(F)(F)F)cc(=O)oc2c1` [Compound Q012124, (2S)-2-({[2-oxo-4-(trifluoromethyl)-2H-chromen-7-yl]oxy}acetyl)amino-3-(thianaphthen-3-yl)propanoic acid ethyl ester]: the “Percent PAI-1 inhibition” value worked out at 13 and the “Conc. of compound required for PAI-1 inhibition” value was determined as 0.05 µM. On the same counts, the results for `CC(C)(C)OC(=O)N1CCC[C@@H](C(=O)N[C@@H](Cc2csc3ccccc23)C(=O)O)C1` [Compound Q012128, (2S)-3-(thianaphthen-3-yl)-2-({[(3R)—N-t-butyloxycarbonylpiperidin-3-yl]carbonyl}amino)propanoic acid] are 14.5 and 10 µM.

For `CN(C)CCSc1ccc(/C=C2\NC(=O)N(Cc3ccc(OCc4ccccc4)cc3)C2=O)s1` [Compound Q013021], the “Percent PAI-1 inhibition” value was found to be 25 and the “Conc. of compound required for PAI-1 inhibition” value came out at 1 µM. For the compound `CCOC(=O)[C@H](Cc1csc2ccccc12)NC(=O)COc1ccc2c(C)cc(=O)oc2c1` [Compound Q012055, (S)—N-[(4-methyl-2-oxo-2H-chromen-7-yl)oxyacetyl]-3-(thianaphthen-3-yl)alanine ethyl ester], the “Percent PAI-1 inhibition” value is 51 and the “Conc. of compound required for PAI-1 inhibition” value was 0.05 µM. For `CN1C(=N)N/C(=C\c2csc3ccccc23)C1=O` [Compound Q012038], the “Percent PAI-1 inhibition” value is 35 and the “Conc. of compound required for PAI-1 inhibition” value is 10 µM.

As for `O=C(COc1ccc2c(C(F)(F)F)cc(=O)oc2c1)N[C@@H](Cc1csc2ccccc12)C(=O)O` [Compound Q012125, (2S)-2-({[2-oxo-4-(trifluoromethyl)-2H-chromen-7-yl]oxy}acetyl)amino-3-(thianaphthen-3-yl)propanoic acid], the “Conc. of compound required for PAI-1 inhibition (result in words)” value is “No inhibition”. Consider `COc1cc(/C=C/C(=O)CC(=O)/C=C/c2ccc(O)c(OC)c2)ccc1O` [Curcumin, curcumin, reference compound], for which the “Percent PAI-1 inhibition” value came to 22 and the “Conc. of compound required for PAI-1 inhibition” value amounted to 0.5 µM.

`COc1cc(CNc2ccccn2)cc(CN2CCN(c3ccccn3)CC2)c1O` [Compound Q012143]: the “Percent PAI-1 inhibition” value was determined as 22 and the “Conc. of compound required for PAI-1 inhibition” value was found to be 250 µM. On the same counts, the results for `CCOC(=O)[C@H](Cc1csc2ccccc12)NC(=O)[C@@H]1CCCNC1` [Compound Q012127, (2S)-3-(thianaphthen-3-yl)-2-({[(3R)-piperidin-3-yl]carbonyl}amino)propanoic acid ethyl ester] are 13 and 250 µM. Consider `O=C1N/C(=C\c2c[nH]c3ccccc23)C(=O)N1Cc1ccccc1` [Compound Q013019], for which the “Conc. of compound required for PAI-1 inhibition (result in words)” value was “No inhibition”. The same measure, in the same setting: with `COc1cc(CNc2ccc(C(=O)O)cc2)cc(CN2CCN(c3ccccn3)CC2)c1O` [Compound Q012146] the entry was “No inhibition”. Consider `O=C(N[C@@H](Cc1csc2ccccc12)C(=O)O)[C@@H]1CCCNC1` [Compound Q012129, (2S)-3-(thianaphthen-3-yl)-2-({[(3R)-piperidin-3-yl]carbonyl}amino)propanoic acid], for which the “Percent PAI-1 inhibition” value was 23 and the “Conc. of compound required for PAI-1 inhibition” value is 1 µM. Regarding `COc1cc(CN[C@@H](Cc2ccccc2)C(=O)O)cc(CN2CCN(c3ccccn3)CC2)c1O` [Compound Q012148], the “Conc. of compound required for PAI-1 inhibition (result in words)” value was “No inhibition”.

With `COc1cc(CNCCc2ccccn2)cc(CN2CCN(c3ccccn3)CC2)c1O` [Compound Q012119T, 2-Methoxy-4-({[2-(pyridin-2-yl)ethyl]amino}methyl)-6-[(4-pyridin-2-ylpiperazin-1-yl)methyl]phenol], the “Conc. of compound required for PAI-1 inhibition (result in words)” value is “No inhibition”.

With `O=C1N/C(=C\c2csc3ccccc23)C(=O)N1Cc1csc2ccccc12` [Compound Q013018], the “Conc. of compound required for PAI-1 inhibition (result in words)” value is “No inhibition”. For the compound `CCOC(=O)[C@H](Cc1csc2ccccc12)NC(=O)[C@@H]1CCCN(C(=O)OC(C)(C)C)C1` [Compound Q012126, (2S)-3-(thianaphthen-3-yl)-2-({[(3R)—N-t-butyloxycarbonylpiperidin-3-yl]carbonyl}amino)propanoic acid ethyl ester], the “Percent PAI-1 inhibition” value is 19 and the “Conc. of compound required for PAI-1 inhibition” value was 50 µM. In the same order, the values of `Cc1cc(=O)oc2cc(OCC(=O)N[C@@H](Cc3csc4ccccc34)C(=O)O)ccc12` [Compound Q012055A, (S)—N-[(4-methyl-2-oxo-2H-chromen-7-yl)oxyacetyl]-3-(thianaphthen-3-yl)alanine] are 41 and 1 µM.

Consider `COc1cc(/C=C2\NC(=O)N(Cc3ccc(O)cc3)C2=O)cc(CN2CCN(C)CC2)c1O` [Compound Q013024], for which the “Conc. of compound required for PAI-1 inhibition (result in words)” value is on record as “No inhibition”. For the compound `CC(C)(C)OC(=O)Nc1ccc(O)c(C(=O)NCCO)c1` [Compound Q012021B, tert-Butyl 4-hydroxy-3-{[(2-hydroxyethyl)amino]carbonyl}phenylcarbamate], the “Percent PAI-1 inhibition” value is 25 and the “Conc. of compound required for PAI-1 inhibition” value was 10 µM.

These data come from patent US20080280920A1, “Plasminogen Activator Inhibitor-1 Inhibitors” (priority 2005, published 2008).
